Experimental data: patent publication US10537558B2 (Bantam Pharmaceutical, LLC, priority 2015, dated 2020)
pEC50: −log10 of the molar value.

test system: BJAB cells; experiment: BJAB cell proliferation (Cell Titer Glo); type: cell-based; details: not given
Procedure, shortened: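 EC50 values come from non-linear regression of luminescence (Cell Titer Glo), expressed relative to untreated wells. BJAB cells were incubated roughly 72 h at 37 °C with serial compound dilutions carrying 0.1% final DMSO.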

SMILES	EC50
Cc1nn(-c2nc(-c3ccc(C#N)cc3)c(SC(C)C)s2)c(C(=O)O)c1-c1cccc(F)c1 [Compound 213, 1-(4-(4-cyanophenyl)-5-(isopropylthio)thiazol-2-yl)-4-(3-fluorophenyl)-3-methyl-1H-pyrazole-5-carboxylic acid]	C-

same assay, conditions: Homo sapiens, read-out: EC50

SMILES	pEC50
COc1cc(Cl)ccc1-c1nc(-n2nc(C)c(-c3cccc(F)c3)c2C(=O)O)sc1SC(C)C [Compound 205, 1-(4-(4-chloro-2-methoxyphenyl)-5-(isopropylthio)thiazol-2-yl)-4-(3-fluorophenyl)-3-methyl-1H-pyrazole-5-carboxylic acid]	5.30 to 6.00
COc1cc(Cl)ccc1-c1nc(-n2nc(C)c(-c3cc(C)nc(C)c3)c2C(=O)O)sc1SC(C)C [Compound 206, 1-(4-(4-chloro-2-methoxyphenyl)-5-(isopropylthio)thiazol-2-yl)-4-(2,6-dimethylpyridin-4-yl)-3-methyl-1H-pyrazole-5-carboxylic Acid]	5.30 to 6.00
Cc1ccc(-c2nc(-n3nc(C)c(-c4cccc(F)c4)c3C(=O)O)sc2SC(C)C)cc1Cl [Compound 207, 1-(4-(3-chloro-4-methylphenyl)-5-(isopropylthio)thiazol-2-yl)-4-(3-fluorophenyl)-3-methyl-1H-pyrazole-5-carboxylic Acid]	5.00 to 5.30
Cc1nn(-c2nc(-c3cc(C)c(=O)n(C)c3)c(SC(C)C)s2)c(C(=O)O)c1-c1cccc(F)c1 [Compound 208, 1-(4-(1,5-dimethyl-6-oxo-1,6-dihydropyridin-3-yl)-5-(isopropylthio)thiazol-2-yl)-4-(3-fluorophenyl)-3-methyl-1H-pyrazole-5-carboxylic Acid]	< 4.40
Cc1nn(-c2nc(-c3cc(OC(F)(F)F)ccc3Cl)c(SC(C)C)s2)c(C(=O)O)c1-c1cccc(F)c1 [Compound 209, 1-(4-(2-chloro-5-(trifluoromethoxy)phenyl)-5-(isopropylthio)thiazol-2-yl)-4-(3-fluorophenyl)-3-methyl-1H-pyrazole-5-carboxylic acid]	4.60 to 5.00
Cc1nn(-c2nc(-c3cncc(C#N)c3)c(SC(C)C)s2)c(C(=O)O)c1-c1cccc(F)c1 [Compound 210, 1-(4-(5-cyanopyridin-3-yl)-5-(isopropylthio)thiazol-2-yl)-4-(3-fluorophenyl)-3-methyl-1H-pyrazole-5-carboxylic acid]	< 4.40
Cc1cc(-c2nc(-n3nc(C)c(-c4cccc(F)c4)c3C(=O)O)sc2SC(C)C)n(C)n1 [Compound 211, 1-(4-(1,3-dimethyl-1H-pyrazol-5-yl)-5-(isopropylthio)thiazol-2-yl)-4-(3-fluorophenyl)-3-methyl-1H-pyrazole-5-carboxylic acid]	< 4.40
Cc1nn(-c2nc(-c3cncnc3)c(SC(C)C)s2)c(C(=O)O)c1-c1cccc(F)c1 [Compound 212, 4-(3-fluorophenyl)-1-(5-(isopropylthio)-4-(pyrimidin-5-yl)thiazol-2-yl)-3-methyl-1H-pyrazole-5-carboxylic Acid]	< 4.40
Cc1ccc(-c2nc(-n3nc(C)c(-c4cccc(F)c4)c3C(=O)O)sc2SC(C)C)cc1F [Compound 214, 1-(4-(3-fluoro-4-methylphenyl)-5-(isopropylthio)thiazol-2-yl)-4-(3-fluorophenyl)-3-methyl-1H-pyrazole-5-carboxylic acid]	5.30 to 6.00
Cc1nn(-c2nc(-c3ccccc3C#N)c(SC(C)C)s2)c(C(=O)O)c1-c1cccc(F)c1 [Compound 215, 1-(4-(2-cyanophenyl)-5-(isopropylthio)thiazol-2-yl)-4-(3-fluorophenyl)-3-methyl-1H-pyrazole-5-carboxylic acid]	4.30 to 4.60
Cc1cc(Cl)ccc1-c1nc(-n2nc(C)c(-c3cccc(F)c3)c2C(=O)O)sc1SC(C)C [Compound 216, 1-(4-(4-chloro-2-methylphenyl)-5-(isopropylthio)thiazol-2-yl)-4-(3-fluorophenyl)-3-methyl-1H-pyrazole-5-carboxylic acid]	> 6.00
Cc1cc(C(F)(F)F)ccc1-c1nc(-n2nc(C)c(-c3cccc(F)c3)c2C(=O)O)sc1SC(C)C [Compound 217, 4-(3-fluorophenyl)-1-(5-(isopropylthio)-4-(2-methyl-4-(trifluoromethyl)phenyl)thiazol-2-yl)-3-methyl-1H-pyrazole-5-carboxylic acid]	> 6.00
Cc1nn(-c2nc(-c3ccc(Cl)c(C#N)c3)c(SC(C)C)s2)c(C(=O)O)c1-c1cccc(F)c1 [Compound 218, 1-(4-(4-chloro-3-cyanophenyl)-5-(isopropylthio)thiazol-2-yl)-4-(3-fluorophenyl)-3-methyl-1H-pyrazole-5-carboxylic Acid]	5.00 to 5.30
Cc1nn(-c2nc(-c3ccc(C(F)(F)F)cc3)c(SC(C)C)s2)c(C(=O)O)c1-c1cc(Cl)cc(Cl)c1 [Compound 219, 4-(3,5-dichlorophenyl)-1-(5-(isopropylthio)-4-(4-(trifluoromethyl)phenyl)thiazol-2-yl)-3-methyl-1H-pyrazole-5-carboxylic Acid]	> 6.00
COCCNC(=O)c1ccc(-c2nc(-n3nc(C)c(-c4cccc(F)c4)c3C(=O)O)sc2SC(C)C)cc1 [Compound 220, 4-(3-fluorophenyl)-1-(5-(isopropylthio)-4-(4-((2-methoxyethyl)carbamoyl)phenyl)thiazol-2-yl)-3-methyl-1H-pyrazole-5-carboxylic Acid]	< 4.40
Cc1nn(-c2nc(-c3ccc(C(=O)N(C)C)cc3)c(SC(C)C)s2)c(C(=O)O)c1-c1cccc(F)c1 [Compound 221, 1-(4-(4-(dimethylcarbamoyl)phenyl)-5-(isopropylthio)thiazol-2-yl)-4-(3-fluorophenyl)-3-methyl-1H-pyrazole-5-carboxylic acid]	< 4.40
Cc1cc(OC(F)(F)F)ccc1-c1nc(-n2nc(C)c(-c3cccc(F)c3)c2C(=O)O)sc1SC(C)C [Compound 224, 4-(3-fluorophenyl)-1-(5-(isopropylthio)-4-(2-methyl-4-(trifluoromethoxy)phenyl)thiazol-2-yl)-3-methyl-1H-pyrazole-5-carboxylic acid]	> 6.00
Cc1nn(-c2nc(-c3ccc(Cl)c(Cl)c3)c(SC(C)C)s2)c(C(=O)O)c1-c1cc(F)cc(Cl)c1 [Compound 225, 4-(3-chloro-5-fluorophenyl)-1-(4-(3,4-dichlorophenyl)-5-(isopropylthio)thiazol-2-yl)-3-methyl-1H-pyrazole-5-carboxylic acid]	> 6.00
Cc1cc(-c2nc(-n3nc(C)c(-c4cccc(F)c4)c3C(=O)O)sc2SC(C)C)ccc1C#N [Compound 226, 1-(4-(4-cyano-3-methylphenyl)-5-(isopropylthio)thiazol-2-yl)-4-(3-fluorophenyl)-3-methyl-1H-pyrazole-5-carboxylic acid]	5.00 to 5.30
Cc1nn(-c2nc(-c3ccc(Cl)c(Cl)c3)c(F)s2)c(C(=O)O)c1-c1cccc(F)c1 [Compound 227, 1-(4-(3,4-dichlorophenyl)-5-fluorothiazol-2-yl)-4-(3-fluorophenyl)-3-methyl-1H-pyrazole-5-carboxylic acid]	4.60 to 5.00
CC(C)Sc1sc(-n2nc(C(C)C)c(-c3cccc(F)c3)c2C(=O)O)nc1-c1ccc(Cl)c(Cl)c1 [Compound 228, 1-(4-(3,4-dichlorophenyl)-5-(isopropylthio)thiazol-2-yl)-4-(3-fluorophenyl)-3-isopropyl-1H-pyrazole-5-carboxylic Acid]	5.30 to 6.00
Cc1nn(-c2nc(-c3ccc(C(F)F)cc3)c(SC(C)C)s2)c(C(=O)O)c1-c1cccc(F)c1 [Compound 229, 1-(4-(4-(difluoromethyl)phenyl)-5-(isopropylthio)thiazol-2-yl)-4-(3-fluorophenyl)-3-methyl-1H-pyrazole-5-carboxylic acid]	5.30 to 6.00
Cc1nn(-c2nc(-c3ccc(Cl)c(Cl)c3)c(OC(C)C)s2)c(C(=O)O)c1-c1cccc(F)c1 [Compound 230, 1-(4-(3,4-dichlorophenyl)-5-isopropoxythiazol-2-yl)-4-(3-fluorophenyl)-3-methyl-1H-pyrazole-5-carboxylic acid]	5.00 to 5.30
CCc1ccc(-c2nc(-n3nc(C)c(-c4cccc(F)c4)c3C(=O)O)sc2SC(C)C)cc1 [Compound 231, 1-(4-(4-ethylphenyl)-5-(isopropylthio)thiazol-2-yl)-4-(3-fluorophenyl)-3-methyl-1H-pyrazole-5-carboxylic Acid]	5.30 to 6.00
Cc1cc(-c2c(C)nn(-c3nc(-c4ccc(C(F)(F)F)cc4)c(SC(C)C)s3)c2C)cc(C)n1 [Compound 232, 2-(4-(2,6-dimethylpyridin-4-yl)-3,5-dimethyl-1H-pyrazol-1-yl)-5-(isopropylthio)-4-(4-(trifluoromethyl)phenyl) thiazole]	4.30 to 4.60
Cc1nn(-c2nc(-c3cncc(F)c3)c(SC(C)C)s2)c(C(=O)O)c1-c1cccc(F)c1 [Compound 233, 4-(3-fluorophenyl)-1-(4-(5-fluoropyridin-3-yl)-5-(isopropylthio)thiazol-2-yl)-3-methyl-1H-pyrazole-5-carboxylic Acid]	< 4.40
Cc1nn(-c2nc(-c3coc4ccccc34)c(SC(C)C)s2)c(C(=O)O)c1-c1cccc(F)c1 [Compound 234, 1-(4-(benzofuran-3-yl)-5-(isopropylthio)thiazol-2-yl)-4-(3-fluorophenyl)-3-methyl-1H-pyrazole-5-carboxylic Acid]	< 4.40
Cc1nn(-c2nc(-c3ccc(C(F)(F)F)cc3)c(SC(C)C)s2)c(C(=O)O)c1-c1ccc(F)c(F)c1 [Compound 235, 4-(3,4-difluorophenyl)-1-(5-(isopropylthio)-4-(4-(trifluoromethyl)phenyl)thiazol-2-yl)-3-methyl-1H-pyrazole-5-carboxylic acid]	> 6.00
Cc1cc(-c2c(C)nn(-c3nc(-c4ccc(C(F)(F)F)cc4)c(SC(C)C)s3)c2C(=O)O)ccc1F [Compound 236, 4-(4-fluoro-3-methylphenyl)-1-(5-(isopropylthio)-4-(4-(trifluoromethyl)phenyl)thiazol-2-yl)-3-methyl-1H-pyrazole-5-carboxylic Acid]	5.30 to 6.00
Cc1nn(-c2nc(-c3ccc(C(F)(F)F)cc3)c(SC(C)C)s2)c(C(=O)O)c1-c1ccc(F)cc1 [Compound 237, 4-(4-fluorophenyl)-1-(5-(isopropylthio)-4-(4-(trifluoromethyl)phenyl)thiazol-2-yl)-3-methyl-1H-pyrazole-5-carboxylic acid]	5.30 to 6.00
